Reference: article PMC8834506, “Optimization of Thymidine Kinase-Based Safety Switch for Neural Cell Therapy” (Cells, 2022)
Entries after “also recorded” stand apart in the source; their conditions may differ. Read-outs that look alike come from different tables or passages of the source.

Assays:
[1] = system: hESC (HS420) expressing Ki67-SR39h; test: ATP-based cell survival assay, nucleoside-induced cell death; settings: for EC50: SR39h under Ki67 promoter
[2] = system: sister chromatid exchange; parameters: method as in PMID 10719044; settings: at concentrations far below those impairing the proliferative activity; cited from earlier work
[3] = system: Ki67-SR39h-expressing hESC transplanted into the striatum; test: In vivo prevention of tumor formation after striatal transplantation; parameters: species or system NOD/SCID mice; settings: 40 mg/kg/day i.p., 47 days post-transplantation
Description: (§1) Given the encouraging in vitro results, we next investigated whether this newly developed safety switch system (SR39h and different nucleoside analogs) could prevent tumor formation in vivo. For this purpose, 20,000 undifferentiated Ki67-SR39h-expressing hESC were transplanted into the striatum of NOD/SCID mice. […] A group of control mice received only a NaCl solution. […] Human cytoplasmic marker (HCM) staining confirmed the human (i.e., hESC-derived) origin of these tumors. Tumors cells were predominantly Ki67 positive with a rosette organization as frequently found in tumors of the central nervous system.
Figure 7 in vivo validation of suicide gene and inducers. (A) Schematic diagram of the experimental setup to detect tumor elimination in vivo. NOD/SCID mice were transplanted with 20,000 SR39h-expressing hESC through stereotactic injection into the striatum. 48 h post transplantation, mice were intraperitoneally injected with the respective nucleoside (40 mg/kg) for five consecutive days a week during a two-week period. Control mice were treated with a NaCl solution. Mice were sacrificed 47 days post transplantation. (B) Cresyl violet staining of a brain section. […] (C) Immunostaining of brain coronal section (sections from ACV-, PCV-, and GCV-treated mice are shown in the upper, middle, and lower row, respectively). Staining with the proliferation marker Ki67 and with the human cytoplasmic marker (HCM) are shown in red and green, respectively. Nuclei were counterstained with DAPI (blue). White arrows show residual proliferative cells form the graft. A merge of the three staining is shown in the right column. Each experimental group consisted of five mice.
Single cell transplant: Undifferentiated HS420 (expressing TK variants) were detached by TrypLE and concentrated at 20,000 cells/μL in Stemflex. 20,000 cells (1 μL) were injected into the right striatum using a 26-G Hamilton syringe (Hamilton, BGB Analytik AG, Boeckten, Switzerland). Injection coordinates for striatum were: bregma = 0.6 mm, mediolateral = 2 mm, dorsoventral = 3 mm.
Thirty days after termination of treatment with the respective antiviral nucleoside analogs or control (NaCl), mice were sacrificed by intracardiac perfusion of paraformaldehyde 4% in PBS. Brains were removed from the skull and post-fixed in the same fixative overnight.
Paraffin embedded brains were sectioned (coronal sections 7 µm thick) and processed for hematoxylin and eosin or cresyl violet staining stain aiming morphological assessment of the graft. Sections were mounted in Eukitt (Kindler GmbH, Germany) and observed under microscope (see below)
The primary antibody diluted in PBS with 0.3% Triton was incubated at 4 °C overnight in agitation. […]

[4] = system: non-transduced hESC colonies; test: Morphology and size of hESC colonies upon nucleoside treatment; assay type: cell-based, human
Excerpt: We next investigated the impact of ACV, PCV, and GCV on non-transduced hESC and neuroprogenitors (proliferating ReNcells). […] To further understand the impact of nucleoside analogs on non-transduced cells, we performed γ-H2A.X immunostaining (Figure 6B). There was a graded response, virtually identical in hESC and in neuroprogenitors. […] In addition, we investigated the morphology and size of non-transduced hESC colonies upon nucleoside treatment. […] Taken together, our findings confirm considerable toxicity of GCV, even in the absence of viral TK. Note that this was not the case for PCV despite the fact that it is a potent inducer of cell death in thymidine kinase-expressing cells.
(§2) Cells were exposed to 100 µM of the respective nucleoside for 48 h. DNA damage was monitored using γ-H2A.X marker in yellow and nuclei were counterstained with Hoechst. The white box in the first column indicates the area of the zoom for the hESC colonies.

[5] = assay type: in vivo, NOD/SCID mice; settings: 40 mg/kg/day i.p.; weighed daily during treatment
Description: as §1
Supplementary Figure S3: Mice weight
Mice were weighed daily during guanosine analogs treatment to identify differences in weight gain/loss between treated groups. No differences were observed between treatment groups.
Supplementary Figure S4: in vivo validation of suicide gene. Coronal section of NOD/SCID mice 47 days after injection of hESC expressing the SR39h thymidine kinase variant. Mice were treated for 2x5 days with the respective nucleoside analogs (see Methods). Upper lane: ACV; middle lane: PCV; lower lane: GCV. Sections were colored with cresyl violet and dark purple staining reflects a high density of nuclei. Scale bar 1000 µm. […]

host cell DNA = settings: cited from earlier work
non-transduced hESC = assay type: cell-based; settings: 96 h nucleoside exposure; up to 100 µM
Description: as §2
Plates were washed twice with DMEM-F12 (Gibco, ThermoFisher; Geneva, Switzerland), then coated with Matrigel (Corning, Lonay, Switzerland) 1/100 in DMEM-F12 and incubate 2 h at 37°. Cells were detached using Accutase and seeded at 2000 cells/well in serum-free culture medium containing 10 µM of ROCK inhibitor. At 24 h, the cell culture was continued without ROCK inhibitor. […] Drugs were prepared by serial dilution (two-fold) in 100% DMSO. At 48 h after seeding, cells were exposed to antiviral drugs for 96 h. For EC50 assays, the medium was changed daily for 4 days, then cell viability was assessed using an ATP-based assay. EC50 values for each construct were calculated using a four parameters equation (GraphPad, Prism8, San Diego, CA, USA). The same procedure was used for the cell death kinetic determinations except the treatment duration. Luminescence was measured using Spectra L384/L96 (0.2 sec exposure, Molecular devices, Biberach an der Riß, Germany).

[6] = Homo sapiens, 96 h, read-out: EC50 (cell survival), 96 h nucleoside exposure

SMILES | Cell death induction in SR39h-expressing cells (in words) ([1]; 96 h nucleoside exposure) | EC50 [1, 6] | Induction of sister chromatid exchange [2] | Tumor formation ([3]; five consecutive days a week for two weeks, from 2 days after transplantation, five mice per group) | Mice with a small nuclei-rich region at the graft site ([3]; cresyl violet staining) | Effect on morphology and size of colonies [4] | Differences in weight among groups [5] | Fragmentation of host cell DNA (host cell DNA) | Toxicity in non-transduced hESC (non-transduced hESC) | EC50 ([1]; read-out: EC50 (cell survival), 96 h nucleoside exposure)
O=c1[nH]c(=O)n([C@H]2C[C@H](O)[C@@H](CO)O2)cc1/C=C/Br [BRVD, brivudine] | induced only very little cytotoxicity | ~60 µM |  |  |  |  |  |  |  | 
CC(=O)OCC(CCn1cnc2cnc(N)nc21)COC(C)=O [FAM, famciclovir] | did not show any toxic effects; also recorded: did not show any activity | > 100 µM |  |  |  |  |  |  |  | 
Nc1nc2c(ncn2CCC(CO)CO)c(=O)[nH]1 [PCV, penciclovir] | strong suicide inducers | 0.0024 µM | not | prevented tumor formation; also recorded: no major tumors; also recorded: impressive anti-tumor activities | small nucleus-rich region in one of the PCV-treated mice; also recorded: one out of five | did not observe an effect | no significant differences in weight | induce fragmentation of host cell DNA | did not observe toxicity | 
CC(C)[C@H](N)C(=O)OCC(CO)OCn1cnc2c(=O)nc(N)[nH]c21 (stereo partly drawn) [Val-GCV, valganciclovir] | relatively weak, but clearly discernible activity | 0.031 µM |  |  |  |  |  |  |  | 0.032 µM
Nc1nc2c(ncn2COCCO)c(=O)[nH]1 [ACV, acyclovir] | induced only very little cytotoxicity | 2.9 µM |  |  |  | did not observe an effect | no significant differences in weight | no fragmentation of host cell DNA |  | 
